≈ marks a conversion by molar mass, not a printed value. Where “and” joins values, the source holds several entries; their conditions need not be identical. Identical values can stand only once.
Key:
CYP2C8 = biological target: T1, CYP2C8 (Homo sapiens, UniProt P10632); experiment: Reversible CYP inhibition in human liver microsomes; conditions: human, microsomes, pH 7.4, Percent of Control Activity; for activity at 2.09 µM: CYP 2C8, 2.09 µM; for activity at 4.48 µM: CYP 2C8, 4.48 µM; for activity at 20.5 µM: CYP 2C8, 20.5 µM; for activity at 43.8 µM: CYP 2C8, 43.8 µM; for activity at 93.5 µM: CYP 2C8, 93.5 µM; for activity at 200 µM: CYP 2C8, 200 µM
T1 sequence (P10632 1-490): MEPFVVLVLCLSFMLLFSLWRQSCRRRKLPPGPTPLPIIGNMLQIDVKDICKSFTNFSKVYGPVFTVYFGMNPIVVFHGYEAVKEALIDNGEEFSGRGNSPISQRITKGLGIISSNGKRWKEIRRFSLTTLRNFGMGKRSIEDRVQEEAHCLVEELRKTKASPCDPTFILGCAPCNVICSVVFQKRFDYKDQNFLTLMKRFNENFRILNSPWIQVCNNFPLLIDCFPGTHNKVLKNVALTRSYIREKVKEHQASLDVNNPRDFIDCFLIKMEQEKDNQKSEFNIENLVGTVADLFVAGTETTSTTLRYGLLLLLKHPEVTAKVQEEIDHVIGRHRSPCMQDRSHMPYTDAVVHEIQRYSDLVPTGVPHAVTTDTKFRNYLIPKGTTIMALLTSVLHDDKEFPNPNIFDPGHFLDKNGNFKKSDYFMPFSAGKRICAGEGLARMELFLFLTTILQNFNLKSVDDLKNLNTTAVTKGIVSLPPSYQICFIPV

CYP3A4/5 = experiment: in vitro; conditions: human, microsomes, pH 7.4, Percent of Control Activity
CYP2C9 = CYP2C9 (Homo sapiens, UniProt P11712); experiment: Reversible CYP inhibition in human liver microsomes
CYP2C9, sequence (P11712 whole entry): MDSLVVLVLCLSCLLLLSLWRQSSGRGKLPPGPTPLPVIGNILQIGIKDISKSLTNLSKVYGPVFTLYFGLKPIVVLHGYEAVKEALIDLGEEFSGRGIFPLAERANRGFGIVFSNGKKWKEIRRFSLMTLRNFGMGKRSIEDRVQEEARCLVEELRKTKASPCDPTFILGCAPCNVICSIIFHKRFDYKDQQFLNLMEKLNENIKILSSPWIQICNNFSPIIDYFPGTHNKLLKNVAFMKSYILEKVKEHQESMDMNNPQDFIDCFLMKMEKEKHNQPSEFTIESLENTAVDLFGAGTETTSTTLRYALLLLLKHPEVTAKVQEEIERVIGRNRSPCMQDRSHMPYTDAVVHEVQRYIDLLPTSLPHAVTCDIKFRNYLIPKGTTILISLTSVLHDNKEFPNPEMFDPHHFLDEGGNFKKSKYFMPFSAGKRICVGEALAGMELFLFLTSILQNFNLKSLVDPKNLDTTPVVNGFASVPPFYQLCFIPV

[1] = CYP 3A4/5 (mdz), 30-Minute Preincubation
[2] = CYP 3A4/5 (mdz), Zero-Minute Preincubation
[3] = CYP 3A4/5 (tst), 30-Minute Preincubation
[4] = CYP 3A4/5 (tst), Zero-Minute Preincubation

COc1cccc2[nH]c(C(=O)N[C@@H](CC(C)C)C(=O)N[C@@H](C[C@@H]3CCNC3=O)C(=O)CO)cc12 [PF-00835231]
activity at 0.979 µM (CYP2C8; CYP 2C8, 0.979 µM, Zero-Minute Preincubation): 108% | activity at 2.09 µM (CYP2C8; 30-Minute Preincubation): 92.8% | activity at 2.09 µM (CYP2C8; Zero-Minute Preincubation): 110% | activity at 4.48 µM (CYP2C8; 30-Minute Preincubation): 85.8% | activity at 4.48 µM (CYP2C8; Zero-Minute Preincubation): 104% | activity at 20.5 µM (CYP2C8; 30-Minute Preincubation): 86% | activity at 20.5 µM (CYP2C8; Zero-Minute Preincubation): 93.6% | activity at 43.8 µM (CYP2C8; 30-Minute Preincubation): 82.6% | activity at 43.8 µM (CYP2C8; Zero-Minute Preincubation): 91.9% | activity at 93.5 µM (CYP2C8; 30-Minute Preincubation): 76.7% | activity at 93.5 µM (CYP2C8; Zero-Minute Preincubation): 91.2% | activity at 200 µM (CYP2C8; 30-Minute Preincubation): 62.8% | activity at 200 µM (CYP2C8; Zero-Minute Preincubation): 79.6% | activity at 0.1 µM (CYP3A4/5; CYP 3A4/5 (mdz), 0.1 µM, 30-Minute Preincubation): 97.8% | activity at 0.1 µM (CYP3A4/5; CYP 3A4/5 (mdz), 0.1 µM, Zero-Minute Preincubation): 95.2% | activity at 0.214 µM (CYP3A4/5; CYP 3A4/5 (mdz), 0.214 µM, 30-Minute Preincubation): 121% | activity at 0.214 µM (CYP3A4/5; CYP 3A4/5 (mdz), 0.214 µM, Zero-Minute Preincubation): 98.7% | activity at 0.979 µM (CYP3A4/5; CYP 3A4/5 (mdz), 0.979 µM, 30-Minute Preincubation): 99.8% | activity at 0.979 µM (CYP3A4/5; CYP 3A4/5 (mdz), 0.979 µM, Zero-Minute Preincubation): 95.5% | activity at 2.09 µM (CYP3A4/5; CYP 3A4/5 (mdz), 2.09 µM, 30-Minute Preincubation): 99.7% | activity at 2.09 µM (CYP3A4/5; CYP 3A4/5 (mdz), 2.09 µM, Zero-Minute Preincubation): 97.6% | activity at 4.48 µM (CYP3A4/5; [1]): 101% | activity at 4.48 µM (CYP3A4/5; [2]): 110% | activity at 20.5 µM (CYP3A4/5; [1]): 88.2% | activity at 20.5 µM (CYP3A4/5; [2]): 108% | activity at 43.8 µM (CYP3A4/5; [1]): 77.3% | activity at 43.8 µM (CYP3A4/5; [2]): 101% | activity at 93.5 µM (CYP3A4/5; [1]): 64.9% | activity at 93.5 µM (CYP3A4/5; [2]): 107% | activity at 200 µM (CYP3A4/5; [2]): 104% | activity at 30 min, 0.1 µM (CYP3A4/5; CYP 3A4/5 (tst), 0.1 µM, 30-Minute Preincubation): 87.1% | activity at 0.1 µM (CYP3A4/5; CYP 3A4/5 (tst), 0.1 µM, Zero-Minute Preincubation): 103% | activity at 0 min, 0.214 µM (CYP3A4/5; CYP 3A4/5 (tst), 0.214 µM, Zero-Minute Preincubation): 102% | activity at 30 min, 0.979 µM (CYP3A4/5; CYP 3A4/5 (tst), 0.979 µM, 30-Minute Preincubation): 97.6% | activity at 0 min, 2.09 µM (CYP3A4/5; CYP 3A4/5 (tst), 2.09 µM, Zero-Minute Preincubation): 98.1% | activity at 4.48 µM (CYP3A4/5; [3]): 101% | activity at 20.5 µM (CYP3A4/5; [3]): 83.2% | activity at 20.5 µM (CYP3A4/5; [4]): 75.8% | activity at 43.8 µM (CYP3A4/5; [3]): 55.5% | activity at 43.8 µM (CYP3A4/5; [4]): 79.9% | activity at 93.5 µM (CYP3A4/5; [4]): 74.9% | activity at 200 µM (CYP3A4/5; [3]): 24.3% | solubility at 48 h (Solubility measurement; deionized water and pH buffers): < 100 µg/mL | solubility (Solubility measurement; standard solubilizing excipients, aqueous with cosolvent or surfactant or cyclodextrin): 500 µg/mL (≈ 1060 µM) | Percent of Control Activity (CYP2C9; CYP 2C9, 0.1 µM, 30-Minute Preincubation, 0.1 µM): 101.5% and 104.7% | Percent of Control Activity (CYP2C9; CYP 2C9, 0.1 µM, Zero-Minute Preincubation, 0.1 µM): 113.8% and 92.8% | Percent of Control Activity (CYP2C9; CYP 2C9, 0.214 µM, 30-Minute Preincubation, 0.214 µM): 103.1% and 106.7% | Percent of Control Activity (CYP2C9; CYP 2C9, 0.214 µM, Zero-Minute Preincubation, 0.214 µM): 100.5% and 101.3% | Percent of Control Activity (CYP2C9; CYP 2C9, 0.979 µM, 30-Minute Preincubation, 0.979 µM): 104.6% and 107.1% | Percent of Control Activity (CYP2C9; CYP 2C9, 0.979 µM, Zero-Minute Preincubation, 0.979 µM): 107.0% | Percent of Control Activity (CYP2C9; CYP 2C9, 2.09 µM, 30-Minute Preincubation, 2.09 µM): 102.9% and 114.0% | Percent of Control Activity (CYP2C9; CYP 2C9, 2.09 µM, Zero-Minute Preincubation, 2.09 µM): 97.5% | Percent of Control Activity (CYP2C9; CYP 2C9, 4.48 µM, 30-Minute Preincubation, 4.48 µM): 102.5% and 104.2% | Percent of Control Activity (CYP2C9; CYP 2C9, 4.48 µM, Zero-Minute Preincubation, 4.48 µM): 95.3% and 94.9% | Percent of Control Activity (CYP2C9; CYP 2C9, 20.5 µM, 30-Minute Preincubation, 20.5 µM): 101.2% and 96.3% | Percent of Control Activity (CYP2C9; CYP 2C9, 20.5 µM, Zero-Minute Preincubation, 20.5 µM): 93.2% | Percent of Control Activity (CYP2C9; CYP 2C9, 43.8 µM, 30-Minute Preincubation, 43.8 µM): 91.9% and 89.1% | Percent of Control Activity (CYP2C9; CYP 2C9, 43.8 µM, Zero-Minute Preincubation, 43.8 µM): 85.3% and 88.3% | Percent of Control Activity (CYP2C9; CYP 2C9, 93.5 µM, 30-Minute Preincubation, 93.5 µM): 76.4% and 76.0% | Percent of Control Activity (CYP2C9; CYP 2C9, 93.5 µM, Zero-Minute Preincubation, 93.5 µM): 76.7% and 76.3% | Percent of Control Activity (CYP2C9; CYP 2C9, 200 µM, 30-Minute Preincubation, 200 µM): 74.9% and 59.1% | Percent of Control Activity (CYP2C9; CYP 2C9, 200 µM, Zero-Minute Preincubation, 200 µM): 71.9% | IC50 (CYP2C9; human, microsomes, pH 7.4): > 200 µM | activity at 0.1 µM (CYP2C9; human, microsomes, pH 7.4, Percent of Control Activity, CYP 2C9, 0.1 µM, 30-Minute Preincubation): 108% | activity at 0.214 µM (CYP2C9; human, microsomes, pH 7.4, Percent of Control Activity, CYP 2C9, 0.214 µM, 30-Minute Preincubation): 102% | activity at 0.214 µM (CYP2C9; human, microsomes, pH 7.4, Percent of Control Activity, CYP 2C9, 0.214 µM, Zero-Minute Preincubation): 102% | activity at 0.979 µM (CYP2C9; human, microsomes, pH 7.4, Percent of Control Activity, CYP 2C9, 0.979 µM, 30-Minute Preincubation): 103% | activity at 0.979 µM (CYP2C9; human, microsomes, pH 7.4, Percent of Control Activity, CYP 2C9, 0.979 µM, Zero-Minute Preincubation): 99.1% | activity at 2.09 µM (CYP2C9; human, microsomes, pH 7.4, Percent of Control Activity, CYP 2C9, 2.09 µM, 30-Minute Preincubation): 99.5% | activity at 2.09 µM (CYP2C9; human, microsomes, pH 7.4, Percent of Control Activity, CYP 2C9, 2.09 µM, Zero-Minute Preincubation): 110% | activity at 4.48 µM (CYP2C9; human, microsomes, pH 7.4, Percent of Control Activity, CYP 2C9, 4.48 µM, 30-Minute Preincubation): 102% | activity at 4.48 µM (CYP2C9; human, microsomes, pH 7.4, Percent of Control Activity, CYP 2C9, 4.48 µM, Zero-Minute Preincubation): 98.5% | activity at 20.5 µM (CYP2C9; human, microsomes, pH 7.4, Percent of Control Activity, CYP 2C9, 20.5 µM, 30-Minute Preincubation): 96.7% | activity at 20.5 µM (CYP2C9; human, microsomes, pH 7.4, Percent of Control Activity, CYP 2C9, 20.5 µM, Zero-Minute Preincubation): 104% | activity at 43.8 µM (CYP2C9; human, microsomes, pH 7.4, Percent of Control Activity, CYP 2C9, 43.8 µM, 30-Minute Preincubation): 101% | activity at 43.8 µM (CYP2C9; human, microsomes, pH 7.4, Percent of Control Activity, CYP 2C9, 43.8 µM, Zero-Minute Preincubation): 85.2% | activity at 93.5 µM (CYP2C9; human, microsomes, pH 7.4, Percent of Control Activity, CYP 2C9, 93.5 µM, 30-Minute Preincubation): 92% | activity at 93.5 µM (CYP2C9; human, microsomes, pH 7.4, Percent of Control Activity, CYP 2C9, 93.5 µM, Zero-Minute Preincubation): 92.6% | activity at 200 µM (CYP2C9; human, microsomes, pH 7.4, Percent of Control Activity, CYP 2C9, 200 µM, 30-Minute Preincubation): 77.1% | activity at 200 µM (CYP2C9; human, microsomes, pH 7.4, Percent of Control Activity, CYP 2C9, 200 µM, Zero-Minute Preincubation): 74.3%

— article PMC8523698, “Preclinical characterization of an intravenous coronavirus 3CL protease inhibitor for the potential treatment of COVID19” (Nature Communications, 2021)
